Test results: patent US6239171A, “Tocotrienols and tocotrienol-like compounds and methods for their use” (Lipogenics, Inc., priority 1998, dated 2001)

What was measured:
chickens = assay: Plasma thromboxane B2 and platelet factor 4 in chickens fed supplemented diets; assay type: in vivo, chicken; settings: control diet + 50 ppm, 4 weeks
Description: We next measured the effects of TRF and its components on serum levels of apolipoprotein (a)1, apolipoprotein B, triglycerides and glucose and the plasma levels of thromboxane B2 and platelet factor 4.

[1] = test system: hypercholesterolemic swine; assay: Serum cholesterol, apolipoproteins, triglycerides, glucose, insulin and glucagon in hypercholesterolemic swine; assay type: in vivo
Description: All assays conducted on chicken or swine serum were done following the protocols described in A. A. Qureshi et al., "Lowering Of Serum Cholesterol In Hypercholesterolemic Humans By Tocotrienols" (Palmvitee), Am. […] Plasma insulin, glucagon and TNF levels were measured using radioinnumoassay kits from Ventrex Laboratories, Inc. (Portland, Me.), ICN Biomedicals, Inc. (Costa Mesa, Calif.) and Genzyme Corp. (Cambridge, Mass.), respectively.
We next measured the effects of various tocotrienols from rice bran on HMG-CoA reductase and cholesterol 7α-hydroxylase in hypercholesterolemic swine. Since pigs are very similar to humans in their cholesterol metabolism, they provide a useful model from which to study hypercholesterolemia and related diseases. […] As a result, the pigs develop complicated atherosclerotic plaques that closely resemble advanced atherosclerotic lesions found in humans.
(§1) Each group of three 5-month old swine was administered either a control diet or a control diet supplemented with 50 ppm of TRF or 50 ppm of an individual tocotrienol. […] After a 12 hour fast, serum and plasma samples were taken a 0 hrs, 21 days and 42 days from the start of the feeding period. After taking serum and plasma samples from the pigs at the end of the 42 day period, all of the swine were fasted for a total of 40 hours, followed by a 48 hour refeeding period. One swine from each group was sacrificed at that time and the liver, intestine, lung, heart, loin muscle, adipose tissue and ham muscle were removed.
The experimental conditions were the same, except that the two remaining swine in each group were transferred to the unsupplemented control diet following the 42 day feeding period. After an additional 70 days, serum and plasma samples were collected from these swine after a 12 hour fast for testing.

[2] = test system: cholesterol 7α-hydroxylase; assay: Hepatic cholesterol 7α-hydroxylase activity in chickens fed supplemented diets; assay type: in vivo, chicken; settings: control diet + 50 ppm, 4 weeks
Description: This example measured the effects of the TRF and its components on the hepatic enzymatic activity of HMG-CoA reductase and cholesterol 7α-hydroxylase. […] The amount of feed consumed ranged from 11.19-11.60 g per chicken and the feeding period was 4 weeks. The birds were fasted for a period of 36 hours and refed for 48 hours prior to sacrifice (at 0800 hours).

[3] = test system: hypercholesterolemic swine; assay: Total cholesterol, triglyceride and glucose concentrations in tissues of hypercholesterolemic swine; assay type: in vivo; settings: control diet + 50 ppm, 42 days
Description: as §1
We next determined the effect of tocotrienols on the total cholesterol, triglyceride and glucose concentrations in various tissues of hypercholesterolemic swine.

[4] = 70 days on control diet after 42 days at 50 ppm

## CC(C)=CCC/C(C)=C/CC/C(C)=C/CCC1(C)CCc2cc(O)ccc2O1 (stereo not shown) [P21, 3,4-dihydro-2-methyl-2-(4,8,12-trimethyltrideca-3' (E),7'(E),11'-trienyl)-2H-1-benzopyran-6-ol]
chickens
  Platelet Factor 4: 7.76 ng/mL
  Platelet Factor 4, percentage of control: 59.28%
  Thromboxane B2: 16.74 pg/mL
  Thromboxane B2, percentage of control: 64.78%
[1]; [4]
  HDL-CHOLESTEROL CONCENTRATION IN SERUM: 31.15 mg/100 ml
  HDL-CHOLESTEROL, Percentage of Control Activity: 103.50%
  HDL-CHOLESTEROL, percentage of baseline value: 135.72%
  HDL:LDL CHOLESTEROL, Percentage of Control Activity: 83.83%
  LDL-CHOLESTEROL CONCENTRATION IN SERUM: 227.82 mg/100 ml
  LDL-CHOLESTEROL, Percentage of Control Activity: 88.02%
  LDL-CHOLESTEROL, percentage of baseline value: 125.11%
  TOTAL CHOLESTEROL CONCENTRATION IN SERUM: 276.23 mg/100 ml
  TOTAL CHOLESTEROL, Percentage of Control Activity: 76.20%
  TOTAL CHOLESTEROL, percentage of baseline value: 125.39%
[1]; control diet + 50 ppm, 6 weeks
  Apo A1, percentage of control: 104.01%
  Apo A1 concentration in serum: 26.72 ± 1.14 mg/100 ml
  Apo B concentration in serum: 111.78 ± 1.80 mg/100 ml
  Apo B, percentage of control: 75.64%
  Triglycerides concentration in serum: 64.44 mg/100 ml
  Triglycerides, percentage of control: 84.17%
[1]; control diet + 50 ppm, 21 days
  HDL-CHOLESTEROL CONCENTRATION IN SERUM: 26.23 mg/100 ml
  HDL-CHOLESTEROL, percentage of baseline value: 114.29%
  HDL:LDL CHOLESTEROL, percentage of baseline value: 93.32%
  LDL-CHOLESTEROL CONCENTRATION IN SERUM: 194.17 mg/100 ml
  LDL-CHOLESTEROL, percentage of baseline value: 106.63%
  TOTAL CHOLESTEROL CONCENTRATION IN SERUM: 236.40 mg/100 ml
  TOTAL CHOLESTEROL, percentage of baseline value: 107.20%
[1]; control diet + 50 ppm, 42 days
  Glucagon: 278.36 pg/mL
  Glucagon, percentage of control: 84.25%
  Glucose: 72.63 mg/100 ml
  Glucose, percentage of control: 75.66%
  HDL-CHOLESTEROL CONCENTRATION IN SERUM: 30.74 mg/100 ml
  HDL-CHOLESTEROL, Percentage of Control Activity: 113.90%
  HDL-CHOLESTEROL, percentage of baseline value: 133.94%
  HDL:LDL CHOLESTEROL, Percentage of Control Activity: 57.82%
  HDL:LDL CHOLESTEROL, percentage of baseline value: 81.59%
  Insulin: 21.4 µU/mL
  Insulin, percentage of control: 104.63%
  LDL-CHOLESTEROL CONCENTRATION IN SERUM: 198.76 mg/100 ml
  LDL-CHOLESTEROL, Percentage of Control Activity: 66.53%
  LDL-CHOLESTEROL, percentage of baseline value: 109.15%
  TOTAL CHOLESTEROL CONCENTRATION IN SERUM: 238.17 mg/100 ml
  TOTAL CHOLESTEROL, Percentage of Control Activity: 68.90%
  TOTAL CHOLESTEROL, percentage of baseline value: 108.20%
[2]
  Cholesterol 7α-Hydroxylase, percentage of control: 112.43%
  Cholesterol 7α-hydroxylase: 11.49 nmol/min/mg
[3]
  TOTAL CHOLESTEROL CONCENTRATION, Adipose Tissue: 89.85 mg/100 gm
  TOTAL CHOLESTEROL CONCENTRATION, Ham Muscle: 79.51 mg/100 gm
  TOTAL CHOLESTEROL CONCENTRATION, Heart: 53.63 mg/100 gm
  TOTAL CHOLESTEROL CONCENTRATION, Intestine: 180.59 mg/100 gm
  TOTAL CHOLESTEROL CONCENTRATION, Liver: 136.70 mg/100 gm
  TOTAL CHOLESTEROL CONCENTRATION, Loin Muscle: 100.58 mg/100 gm
  TOTAL CHOLESTEROL CONCENTRATION, Lung: 75.68 mg/100 gm
  TOTAL CHOLESTEROL, Adipose Tissue, percentage of control: 82.13%
  TOTAL CHOLESTEROL, Ham Muscle, percentage of control: 79.51%
  TOTAL CHOLESTEROL, Heart, percentage of control: 83.13%
  TOTAL CHOLESTEROL, Intestine, percentage of control: 83.80%
  TOTAL CHOLESTEROL, Liver, percentage of control: 67.81%
  TOTAL CHOLESTEROL, Loin Muscle, percentage of control: 84.09%
  TOTAL CHOLESTEROL, Lung, percentage of control: 74.39%
  TOTAL GLUCOSE CONCENTRATION, Adipose Tissue: 16.67 mg/100 gm
  TOTAL GLUCOSE CONCENTRATION, Ham Muscle: 54.01 mg/100 gm
  TOTAL GLUCOSE CONCENTRATION, Heart: 44.17 mg/100 gm
  TOTAL GLUCOSE CONCENTRATION, Intestine: 62.50 mg/100 gm
  TOTAL GLUCOSE CONCENTRATION, Liver: 374.22 mg/100 gm
  TOTAL GLUCOSE CONCENTRATION, Loin Muscle: 55.45 mg/100 gm
  TOTAL GLUCOSE CONCENTRATION, Lung: 61.92 mg/100 gm
  TOTAL GLUCOSE, Adipose Tissue, percentage of control: 90.89%
  TOTAL GLUCOSE, Ham Muscle, percentage of control: 100.35%
  TOTAL GLUCOSE, Heart, percentage of control: 89.69%
  TOTAL GLUCOSE, Intestine, percentage of control: 86.84%
  TOTAL GLUCOSE, Liver, percentage of control: 92.35%
  TOTAL GLUCOSE, Loin Muscle, percentage of control: 77.84%
  TOTAL GLUCOSE, Lung, percentage of control: 92.51%
  TOTAL TRIGLYCERIDES CONCENTRATION, Adipose Tissue: 282.82 mg/100 gm
  TOTAL TRIGLYCERIDES CONCENTRATION, Ham Muscle: 182.16 mg/100 gm
  TOTAL TRIGLYCERIDES CONCENTRATION, Heart: 142.38 mg/100 gm
  TOTAL TRIGLYCERIDES CONCENTRATION, Intestine: 347.75 mg/100 gm
  TOTAL TRIGLYCERIDES CONCENTRATION, Liver: 386.25 mg/100 gm
  TOTAL TRIGLYCERIDES CONCENTRATION, Loin Muscle: 194.75 mg/100 gm
  TOTAL TRIGLYCERIDES CONCENTRATION, Lung: 165.47 mg/100 gm
  TOTAL TRIGLYCERIDES, Adipose Tissue, percentage of control activity: 64.91%
  TOTAL TRIGLYCERIDES, Ham Muscle, percentage of control activity: 98.03%
  TOTAL TRIGLYCERIDES, Heart, percentage of control activity: 98.72%
  TOTAL TRIGLYCERIDES, Intestine, percentage of control activity: 97.24%
  TOTAL TRIGLYCERIDES, Liver, percentage of control activity: 89.96%
  TOTAL TRIGLYCERIDES, Loin Muscle, percentage of control activity: 88.65%
  TOTAL TRIGLYCERIDES, Lung, percentage of control activity: 96.22%
